Measurements from article PMC10331583, “Control of fibrosis with enhanced safety via asymmetric inhibition of prolyl‐tRNA synthetase 1” (EMBO Molecular Medicine, 2023).
“And” between values parts separate entries of the source, which are not always exact repeats. Equal values may be shown once. “Also recorded” adds a separate entry of the source.

Key:
PARS1 WT = target: T1, PARS1 WT (Homo sapiens, UniProt P07814); assay: Microscale thermophoresis (MST), PARS1 WT; type: binding; conditions: for Fraction bound: single replicates
T1 construct: His‐PARS1 (1001–1,512 aa); made in house; host or cells: Escherichia coli
T1 sequence (P07814 1001-1512 limits assumed): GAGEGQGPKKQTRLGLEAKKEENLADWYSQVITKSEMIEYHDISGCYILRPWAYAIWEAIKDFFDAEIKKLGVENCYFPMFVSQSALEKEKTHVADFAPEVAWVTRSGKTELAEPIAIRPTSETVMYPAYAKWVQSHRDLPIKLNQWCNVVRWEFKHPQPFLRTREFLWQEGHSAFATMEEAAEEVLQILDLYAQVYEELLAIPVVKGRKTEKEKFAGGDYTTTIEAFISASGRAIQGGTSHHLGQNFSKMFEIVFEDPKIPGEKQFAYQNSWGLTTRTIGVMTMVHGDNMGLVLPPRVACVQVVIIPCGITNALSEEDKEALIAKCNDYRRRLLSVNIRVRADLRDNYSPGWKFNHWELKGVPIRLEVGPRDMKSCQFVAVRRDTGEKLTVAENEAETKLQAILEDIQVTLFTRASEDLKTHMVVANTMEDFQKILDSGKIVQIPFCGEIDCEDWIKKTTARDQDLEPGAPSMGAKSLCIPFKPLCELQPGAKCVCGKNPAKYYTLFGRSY

PARS1 = target: T2, PARS1 (Homo sapiens, UniProt P07814); assay: In vitro prolylation assay; type: biochemical
T2 construct: His‐PARS1 (1001–1,512 aa); His; made in house; host or cells: Escherichia coli
T2 sequence (P07814 1001-1512 limits assumed): T1 sequence (P07814 1001-1512 limits assumed)
Method: The enzyme reaction was initiated by the addition of 100 nM purified His‐PARS1 (1001–1,512 aa). After 5 min, the reaction mixture was quenched on Whatman filter paper presoaked with 5% trichloroacetic acid (TCA). The filter papers were washed three times in 5% TCA for 10 min at 4°C and once in 100% ethanol for 10 min. The filter papers were dried, and radioactivity was quantified using liquid scintillation counter (LSC).
After 1 h, the reaction mixture was quenched on Whatman filter paper presoaked with 5% TCA. The filter papers were washed three times in 5% TCA for 10 min at 4°C and once in 100% ethanol for 10 min. The filter papers were dried, and radioactivity was quantified using LSC.

C57BL/6 mice [1] = assay: Bleomycin‐induced lung fibrosis, therapeutic model 1 (compounds from a week after bleomycin); type: in vivo
Method: To examine therapeutic efficacy of DWN12088, all experiments were conducted following the international guidelines on the ethical use of experimental animals and approved by the Institutional Animal Care and Use Committee of Daewoong Pharmaceutical (IACUC‐21‐014). C57BL/6 mice (7–8‐week‐old, male, obtained from Orient Bio) were anesthetized with Zoletil and injected intratracheally with 100 μl bleomycin (2 units/kg) (Merck, B8416) to induce lung fibrosis. A group of disease‐free mice (“untreated”) were injected with PBS instead of bleomycin. After a week, mice treated with bleomycin were randomized to (i) vehicle (saline), (ii) HF 0.05 mg/kg, (iii) HF 0.1 mg/kg, and (iv) DWN12088 10 mg/kg groups (n = 5 for each group) according to their body weight. The drugs were orally administered once daily for 2 weeks, and then the outcome was analyzed. For the experiments testing the effect of the compounds 2 weeks after bleomycin challenge, the experiment was approved by IACUC of Daewoong Pharmaceutical (IACUC‐22‐009). The experimental procedures were performed following the methods described previously, with the exception that the compounds were administered 2 weeks after bleomycin challenge. The experiments were conducted as non‐blind tests.
Mice were anesthetized with Zoletil for 10 min, and a portable mouse pulse oximeter (Veterinary Pulse Oximeter, Berry Electronic) was placed on each mouse's body. The measurements were continued to allow the recording of 3 min of a stable signal.
The collagen contents of lung tissues were measured using Sircol™ soluble collagen assay (Biocolor Ltd., S1000) following the manufacturer's instructions. Briefly, the right lung lobes were homogenized, and collagen was solubilized in 0.5 M acetic acid. Tissue extracts were incubated with Sirius red dye, and the absorbance was determined at 540 nm using a spectrophotometer. The amount of collagen was expressed relative to the wet weight of the tissues.
The lung tissues were fixed in paraformaldehyde and embedded in paraffin. The paraffin‐embedded blocks were sectioned at 4 μm and then mounted onto glass slides. After deparaffinization and rehydration, the slides were fixed with Bouin's solution (Sigma Aldrich, HT10132‐1L) for 1 h. Then, the slides were incubated with hematoxylin (Sigma Aldrich, MHS16‐500ML), Biebrich Scarlet (Sigma Aldrich, B‐6008) and acid fuchsin (Sigma Aldrich, A‐3908), phosphomolybdic (DAEJUNG, 6531‐4105) and phosphotungstic acid (DAEJUNG, 6539‐4105), aniline blue (DAEJUNG, 1087‐4125), and then 1% (v/v) acetic acid (DUKSAN, UN2789). After dehydration, the slides were mounted onto cover slips and scanned using slide scanner (3D HISTECH, Pannoramic MIDI). Fibrotic area of the images was quantified by using Image J plugin, color deconvolution 2.

C57BL/6 mice [2] = assay: Bleomycin‐induced lung fibrosis, therapeutic model 2 (compounds from 2 weeks after bleomycin); type: in vivo; conditions: model 2, drug administration from day 14
Method: To examine therapeutic efficacy of DWN12088, all experiments were conducted following the international guidelines on the ethical use of experimental animals and approved by the Institutional Animal Care and Use Committee of Daewoong Pharmaceutical (IACUC‐21‐014). C57BL/6 mice (7–8‐week‐old, male, obtained from Orient Bio) were anesthetized with Zoletil and injected intratracheally with 100 μl bleomycin (2 units/kg) (Merck, B8416) to induce lung fibrosis. A group of disease‐free mice (“untreated”) were injected with PBS instead of bleomycin. After a week, mice treated with bleomycin were randomized to (i) vehicle (saline), (ii) HF 0.05 mg/kg, (iii) HF 0.1 mg/kg, and (iv) DWN12088 10 mg/kg groups (n = 5 for each group) according to their body weight. The drugs were orally administered once daily for 2 weeks, and then the outcome was analyzed. For the experiments testing the effect of the compounds 2 weeks after bleomycin challenge, the experiment was approved by IACUC of Daewoong Pharmaceutical (IACUC‐22‐009). […]
The collagen contents of lung tissues were measured using Sircol™ soluble collagen assay (Biocolor Ltd., S1000) following the manufacturer's instructions. […] Tissue extracts were incubated with Sirius red dye, and the absorbance was determined at 540 nm using a spectrophotometer. […]

SMILES: O[C@H]1CCCN[C@@H]1CCCn1cnc2c(Cl)c(Cl)ccc21 [DWN12088]
- Fraction bound, average (PARS1 WT; Dose 30.5176 nM): -0.2054
- Fraction bound (PARS1 WT; Dose 30.5176 nM): -0.1847 and -0.2552 and -0.1762
- Fraction bound, average (PARS1 WT; Dose 61.0352 nM): -0.1331
- Fraction bound (PARS1 WT; Dose 61.0352 nM): -0.1271 and -0.1077 and -0.1644
- Fraction bound, average (PARS1 WT; Dose 122.07 nM): -0.0578
- Fraction bound (PARS1 WT; Dose 122.07 nM): 0.0166 and -0.0399 and -0.1500
- Fraction bound, average (PARS1 WT; Dose 244.141 nM): 0.0543
- Fraction bound (PARS1 WT; Dose 244.141 nM): -0.0356 and 0.0851 and 0.1134
- Fraction bound, average (PARS1 WT; Dose 488.281 nM): -0.0068
- Fraction bound (PARS1 WT; Dose 488.281 nM): 0.0147 and -0.0499 and 0.0148
- Fraction bound, average (PARS1 WT; Dose 976.562 nM): 0.1887
- Fraction bound (PARS1 WT; Dose 976.562 nM): 0.1745 and 0.1271 and 0.2645
- Fraction bound, average (PARS1 WT; Dose 1953.12 nM): 0.3166
- Fraction bound (PARS1 WT; Dose 1953.12 nM): 0.2796 and 0.3408 and 0.3294
- Fraction bound, average (PARS1 WT; Dose 3906.25 nM): 0.1823
- Fraction bound (PARS1 WT; Dose 3906.25 nM): 0.1409 and 0.1539 and 0.2519
- Fraction bound, average (PARS1 WT; Dose 7812.5 nM): 0.3895
- Fraction bound (PARS1 WT; Dose 7812.5 nM): 0.3262 and 0.4199 and 0.4224
- Fraction bound, average (PARS1 WT; Dose 15625 nM): 0.4633
- Fraction bound (PARS1 WT; Dose 15625 nM): 0.4748 and 0.4733 and 0.4418
- Fraction bound, average (PARS1 WT; Dose 31250 nM): 0.5523
- Fraction bound (PARS1 WT; Dose 31250 nM): 0.4690 and 0.5423 and 0.6454
- Fraction bound, average (PARS1 WT; Dose 62500 nM): 0.5522
- Fraction bound (PARS1 WT; Dose 62500 nM): 0.5673 and 0.5892 and 0.5000
- Fraction bound, average (PARS1 WT; Dose 125000 nM): 0.7606
- Fraction bound (PARS1 WT; Dose 125000 nM): 0.7942 and 0.7665 and 0.7210
- Fraction bound, average (PARS1 WT; Dose 250000 nM): 0.9107
- Fraction bound (PARS1 WT; Dose 250000 nM): 0.9397 and 0.8612 and 0.9313
- Fraction bound, average (PARS1 WT; Dose 500000 nM): 1.0322
- Fraction bound (PARS1 WT; Dose 500000 nM): 1.1218 and 1.1050 and 0.8698
- Fraction bound, average (PARS1 WT; Dose 1000000 nM): 1.1170
- Fraction bound (PARS1 WT; Dose 1000000 nM): 1.1447 and 1.1049 and 1.1015
- Kd (PARS1 WT; Kd (Fit Results), His-PARS1 WT, doses of the sheet in nM): 20500 nM
- Kd (PARS1 WT; Kd, MST, in the presence of ATP): 20000 nM
- Kd (PARS1 WT; Kd, MST, in the presence of proline 30 μM): 79000 nM
- Kd (PARS1 WT; Kd, MST, in the presence of proline 120 μM): 108000 nM
- Kd (PARS1 WT; Kd, WT, 5 mM ATP, mean ± SD, unit inferred): 20500 ± 8580 nM
- IC50 (PARS1; IC50, 1 μM Pro, 5 mM ATP): 0.0761 µM
- IC50 (PARS1; IC50, 10 μM Pro, 5 mM ATP): 0.397 µM
- IC50 (PARS1; IC50, 100 μM Pro, 2.5 mM ATP): 5.94 µM
- IC50 (PARS1; IC50, 100 μM Pro, 5 mM ATP): 6.46 µM
- IC50 (PARS1; IC50, 100 μM Pro, 10 mM ATP): 3 µM
- mode of PARS1 inhibition (PARS1; IC50 at different proline and ATP concentrations): proline‐competitive and ATP‐uncompetitive; also recorded: competitive inhibitor for proline, and a mixed or uncompetitive inhibitor for ATP
- efficacy (SpO2, BALF total cell count, collagen contents) (C57BL/6 mice [1]; 10 mg/kg oral once a day, 2 weeks, versus nintedanib 60 mg/kg and pirfenidone 200 mg/kg (Fig EV4D–F)): comparable with nintedanib and pirfenidone
- BALF total cell count, average (C57BL/6 mice [1]; BLM +, 10 mg/kg): 8.46 x105 cells
- BALF total cell count, single animal (C57BL/6 mice [1]; BLM +, 10 mg/kg): 9.8 x105 cells and 8.9 x105 cells and 6.4 x105 cells and 7.5 x105 cells and 9.7 x105 cells
- Collagen contents, average (C57BL/6 mice [1]; BLM +, 10 mg/kg): 213.8 μg/right lung
- Collagen contents, single animal (C57BL/6 mice [1]; BLM +, 10 mg/kg): 175 μg/right lung and 275 μg/right lung and 198 μg/right lung and 165 μg/right lung and 256 μg/right lung
- Fibrotic area, average (C57BL/6 mice [1]; BLM +, 10 mg/kg): 173.8 % of control
- Fibrotic area, single animal (C57BL/6 mice [1]; BLM +, 10 mg/kg): 230.8 % of control and 181.2 % of control and 123.5 % of control and 151.5 % of control and 182.0 % of control
- SpO2, average (C57BL/6 mice [1]; BLM +, 10 mg/kg): 81.0%
- SpO2, single animal (C57BL/6 mice [1]; BLM +, 10 mg/kg): 87% and 81% and 88% and 72% and 77%
- collagen deposition, Masson's trichrome staining (C57BL/6 mice [1]; lung tissue (Fig 1H and I)): decreased collagen deposition in the interstitial spaces
- fibrotic properties (C57BL/6 mice [1]; model 1, drug administration from day 7): significantly reduced fibrotic properties
- in vivo effective dose of DWN12088 relative to that of HF (C57BL/6 mice [1]; mouse, in vivo): about 100 times
- fibrotic properties (C57BL/6 mice [2]): less apparent
